Measured values reported in the CheMixHub viscosity set.
Values joined by “and” are separate entries in the source; they are usually repeats but may differ in a detail not shown here. Equal values may be shown once.

Assay: xn = mol fraction of the nth substance listed

CC1CCCCC1 + CCC(C)O
viscosity [mPa·s], 100 kPa
Settings | x1 = 0.0811 | x1 = 0.16 | x1 = 0.24 | x1 = 0.35 | x1 = 0.4401 | x1 = 0.56 | x1 = 0.6501 | x1 = 0.7401 | x1 = 0.8492 | x1 = 0.94
293.15 K | 2.84 | 2.24 | 1.78 | 1.36 | 1.15 | 0.99 | 0.95 | 0.92 | 0.87 | 0.79
298.15 K | 2.4 | 1.91 | 1.53 | 1.17 | – | 0.88 | 0.84 | 0.81 | 0.79 | 0.74
303.15 K | 2.02 | 1.63 | 1.31 | 1.02 | 0.88 | 0.79 | 0.76 | 0.74 | 0.73 | 0.69
308.15 K | 1.72 | 1.42 | 1.18 | 0.95 | 0.83 | 0.74 | 0.71 | 0.69 | 0.67 | 0.64
313.15 K | 1.48 | 1.23 | 1.04 | 0.85 | 0.76 | 0.69 | 0.67 | 0.65 | 0.63 | 0.6
318.15 K | 1.27 | 1.07 | 0.91 | 0.76 | 0.69 | 0.64 | 0.62 | 0.61 | 0.59 | 0.56
323.15 K | 1.11 | 0.94 | 0.81 | 0.69 | 0.63 | 0.59 | 0.58 | 0.58 | 0.56 | 0.53

CC1CCCCC1 + CCCCCCCC
viscosity [mPa·s], 101 kPa
Settings | 293.15 K | 298.15 K | 303.15 K | 308.15 K
x1 = 0.0401 | 0.5414 | 0.5075 | 0.482 | –
x1 = 0.1044 | – | 0.524 | 0.496 | 0.468
x1 = 0.1998 | 0.5583 | 0.5193 | 0.4944 | –
x1 = 0.2066 | – | 0.535 | 0.504 | 0.474
x1 = 0.2801 | 0.5689 | 0.5283 | 0.5018 | –
x1 = 0.3045 | – | 0.543 | 0.512 | 0.481
x1 = 0.3514 | 0.5781 | 0.5367 | 0.5067 | –
x1 = 0.4068 | – | 0.557 | 0.525 | 0.493
x1 = 0.4282 | 0.5879 | 0.5477 | 0.5161 | –
x1 = 0.5043 | – | 0.57 | 0.537 | 0.504
x1 = 0.6015 | – | 0.586 | 0.552 | 0.518
x1 = 0.6051 | 0.6189 | 0.5761 | 0.5389 | –
x1 = 0.6759 | 0.634 | 0.5912 | 0.5529 | –
x1 = 0.7015 | – | 0.603 | 0.567 | 0.532
x1 = 0.7572 | 0.6552 | 0.6123 | 0.5712 | –
x1 = 0.8023 | – | 0.624 | 0.587 | 0.55
x1 = 0.8382 | 0.6791 | 0.6323 | 0.5918 | –
x1 = 0.8984 | – | 0.646 | 0.607 | 0.568
x1 = 0.9197 | 0.7023 | 0.6539 | 0.6124 | –
x2 = 0.0861 | – | 0.655 | – | –
x2 = 0.1756 | – | 0.633 | – | –
x2 = 0.3246 | – | 0.602 | – | –
x2 = 0.4674 | – | 0.577 | – | –
x2 = 0.6154 | – | 0.559 | – | –
x2 = 0.7785 | – | 0.526 | – | –
x2 = 0.7797 | – | 0.535 | – | –

[Li+].[O-][Cl+3]([O-])([O-])[O-] + C1CCOC1
101 kPa, x1 = 0.07
Settings | viscosity [mPa·s]
303.15 K | 0.85
308.15 K | 0.81
313.15 K | 0.78
318.15 K | 0.74
323.15 K | 0.71

COc1ccc(/C=C/C(=O)c2ccccc2)cc1 + CCO
viscosity [mPa·s], 101 kPa
Settings | x1 = 0.000144 | x1 = 0.000288 | x1 = 0.0005755 | x1 = 0.00115 | x1 = 0.002298 | x1 = 0.004586
298.15 K | 1.12 | 1.173 | 1.263 | 1.34 | 1.364 | 1.439
303.15 K | 1.019 | 1.072 | 1.162 | 1.239 | 1.263 | 1.338
308.15 K | 0.9181 | 0.971 | 1.061 | 1.138 | 1.162 | 1.237

CCOC(=O)c1ccccc1 + COCCO
viscosity [mPa·s], 101 kPa
Settings | x2 = 0.1045 | x2 = 0.199 | x2 = 0.2979 | x2 = 0.4016 | x2 = 0.5007 | x2 = 0.6025 | x2 = 0.6973 | x2 = 0.7982 | x2 = 0.8977
298.15 K | 1.883 | 1.824 | 1.803 | 1.757 | 1.774 | 1.752 | 1.773 | 1.761 | 1.783
303.15 K | 1.703 | 1.65 | 1.631 | 1.587 | 1.598 | 1.581 | 1.592 | 1.581 | 1.602
308.15 K | 1.55 | 1.501 | 1.48 | 1.441 | 1.448 | 1.431 | 1.439 | 1.431 | 1.444

CCCCCl + CCC(C)O
viscosity [mPa·s], 101 kPa
Settings | x1 = 0.0997 | x1 = 0.1976 | x1 = 0.3052 | x1 = 0.4049 | x1 = 0.497 | x1 = 0.606 | x1 = 0.7022 | x1 = 0.8053 | x1 = 0.9038
298.15 K | 1.98 | 1.379 | 1.015 | 0.8086 | 0.6823 | 0.5809 | 0.5176 | 0.469 | 0.4366
313.15 K | 1.234 | 0.9264 | 0.7261 | 0.6063 | 0.5279 | 0.4628 | 0.4198 | 0.3877 | 0.3663

[Li+].[O-][Cl+3]([O-])([O-])[O-] + O=S1(=O)CCCC1
101 kPa, x1 = 0.1
Settings | viscosity
303.15 K | 28.58 mPa·s and 28.57 mPa·s
308.15 K | 24.56 mPa·s
313.15 K | 20.83 mPa·s
318.15 K | 18.28 mPa·s
323.15 K | 16.02 mPa·s

CCOC(=O)c1ccccc1 + CC(C)O
viscosity [mPa·s], 101 kPa
Settings | x1 = 0.056 | x1 = 0.1177 | x1 = 0.1862 | x1 = 0.2624 | x1 = 0.348 | x1 = 0.4446 | x1 = 0.546 | x1 = 0.681 | x1 = 0.8277
303.15 K | 1.659 | 1.664 | 1.671 | 1.678 | 1.686 | 1.695 | 1.706 | 1.719 | 1.733
308.15 K | 1.501 | 1.508 | 1.515 | 1.525 | 1.532 | 1.541 | 1.551 | 1.563 | 1.577
313.15 K | 1.327 | 1.337 | 1.345 | 1.356 | 1.367 | 1.38 | 1.394 | 1.409 | 1.426
318.15 K | 1.192 | 1.203 | 1.213 | 1.225 | 1.239 | 1.254 | 1.27 | 1.291 | 1.313
323.15 K | 1.074 | 1.085 | 1.099 | 1.114 | 1.13 | 1.15 | 1.167 | 1.194 | 1.222
